One experiment concerns the target T1, PnGGT ΔN24 D405N (Pseudomonas nitroreducens, UniProt E0D5C2, D405N).
T1 sequence (E0D5C2 with tags, fused parts or gaps D405N): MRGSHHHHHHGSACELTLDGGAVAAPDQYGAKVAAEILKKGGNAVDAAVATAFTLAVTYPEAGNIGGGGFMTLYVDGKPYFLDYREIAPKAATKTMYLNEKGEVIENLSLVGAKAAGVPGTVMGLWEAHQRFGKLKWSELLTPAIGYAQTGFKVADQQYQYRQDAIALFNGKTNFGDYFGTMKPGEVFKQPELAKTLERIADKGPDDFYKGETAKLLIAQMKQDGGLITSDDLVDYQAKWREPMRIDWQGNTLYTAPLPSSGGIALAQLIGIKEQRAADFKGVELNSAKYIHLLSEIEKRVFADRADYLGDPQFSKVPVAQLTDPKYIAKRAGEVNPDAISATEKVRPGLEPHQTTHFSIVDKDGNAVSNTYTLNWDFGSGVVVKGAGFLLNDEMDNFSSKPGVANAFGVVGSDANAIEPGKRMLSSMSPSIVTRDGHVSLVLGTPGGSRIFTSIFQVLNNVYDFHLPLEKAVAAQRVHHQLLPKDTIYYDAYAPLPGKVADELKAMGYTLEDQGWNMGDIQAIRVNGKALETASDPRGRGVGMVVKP
Kind of experiment: Colorimetric GGT assay in whole cell lysates / cell free extracts. In kind it is biochemical. Conditions: whole cell lysate, 4 mM substrate, 50 mM Tris-HCl (pH 9.0), 410 nm. An excerpt: FIG. 22: Identification of GGT* activity and refactoring of the ssuABC operon. […] The release of 4-nitroaniline was quantified by measuring the absorption at 410 nm. (b) Plasmid map of the three-dimensional RBS-library for refactoring the ssuABC operon using 144 RBS variants per gene. RBS library sequences are underlined. Arrows point towards the final RBS sequences observed in plasmid pSsuABC. […] (e) Growth of strain TK088[pSsuABC]transformed with the empty vector pACT3 (black circles) or plasmid pPnGGT* (white circles) in liquid MS minimal medium supplemented with 0.5% glucose, 1 mM MgSO4, 0.4 mM L-leucine, 0.5 mM IPTG, 100 ng ml^−1 aTc and 0.5 mM sulfobutanoyl-L-histidine. Bars and dots from panels (a), (d) and (e) represent the average of three independent measurements with standard deviations shown as error bars.
To test for the desired activity a colorimetric enzyme assay was chosen and the substrate sulfobutanoyl-p-nitroanilide was synthesized for this purpose. Hydrolysis of this colorless substrate by a GGT variant into sulfobutanoic acid and the yellow dye 4-nitroaniline can be quantified photometrically at 410 nm. For that, cytoplasmic GGT variants containing an N-terminal 6×His-tag were first expressed from E. coli (EcGGT ΔN24) and Pseudomonas nitroreducens (PnGGT ΔN24), as well as EcGGT ΔN24 D433N and the corresponding mutant variant PnGGT ΔN24 D405N. […]

A further experiment has as its system BW25113 ΔleuB (TK080). Kind of experiment: Growth on different sulfur sources. The format is cell-based, E. coli. As to conditions: 1 mM sulfur source, minimal medium, 0.5% glucose, 0.4 mM leucine. Here is the method:
FIG. 21: Growth of E. coli on sulfonates. Strains TK080 (a; BW25113 ΔleuB) and TK082 (b; BW25113 ΔleuB ΔssuEADCB ΔtauD) were grown in MS minimal medium supplemented with 0.5% glucose, 0.4 mM L-leucine, 1 mM MgCl2 and 1 mM of a sulfur source. TK080 was able to use the majority of the tested sulfur sources with a similar efficiency as sulfate. […] Dots represent the average of three independent measurements with standard deviations shown as error bars.
For the experiments relating to the sulfonate based synthetic transport system, unless stated otherwise, growth experiments in selective medium were carried out in sulfur free MS minimal medium (4 mM citric acid, 1 mM MgCl2, 20 mM NH4Cl, 50 mM KH2PO4 and 1×NTA mix (10 μM nitrilotriacetic acid, 3 μM CaCl2, 3 μM FeCl3, 1 μM MnCl2, 0.3 μM ZnCl2, 0.3 μM H3B3, 0.3 μM CrC3, 0.3 μM COCl2, 0.3 μM CuCl2, 0.3 μM Ni2C, 0.3 μM Na2MoO4, 0.3 μM Na2SeO3)) supplemented with 0.5% glucose. MgSO4 (1 mM), MgCl2 (1 mM), L-leucine (0.4 mM), IPTG (0.5 mM), aTc (100 ng mL-1), nicotinic acid (various concentrations), 3-picolylamine (various concentrations) and sulfonates (various concentrations) as indicated in the text. […] Synthesis schemes for sulfobutanoyl-p-nitroanilide and other sulfonates are given below.
The sulfonate transporters SsuABC and TauABC transport a wide variety of sulfonate compounds (Eichhorn et al., 2000) and can thus be exploited for the present synthetic transport system. As such, the uptake and utilization of sulfobutanoyl-L-leucine was assessed. The leucine auxotrophic strain BW25113 ΔleuB was tested for growth in minimal medium supplemented with 0.5% glucose, 0.4 mM leucine, 0.4 mM isoleucine and 1 mM of a sulfur-containing compound as the sole sulfur source.

Structures can show the parent of a compound that is named as a salt.

Take `O=C(CCCS(=O)(=O)O)Nc1ccc([N+](=O)[O-])cc1` [sodium salt]: the hydrolysis of substrate entry at PnGGT ΔN24 D405N is “significantly higher activity than EcGGT ΔN24 D433N”. In addition, in the experiment with BW25113 ΔleuB (TK080), the “growth with compound as sole sulfur source” value was “comparable to growth on other sulfonates”.

The record behind these values is patent publication US11661398B2, “Cellular transport system for transferring a sulfonic acid construct carrying a cargo into the cytoplasm of a cell” (Scientist of Fortune, S.A., priority 2017, dated 2023).
